Structures can show the parent of a compound that is named as a salt.
Tests used:
[1] = target: CYP2D6 (Homo sapiens (Human), UniProt P10635); assay: Cytochrome oxidase P450 inhibition study, CYP2D6; type: in vitro ADME; settings: human liver microsomes; read-out: IC50 2D6
Protocol: LC-MS/MS methods were used to evaluate the inhibitory effects of compounds on CYP2C19, 2D6 and 3A4 subtypes. In this method, the test compound was mixed with a solution of human liver microsomes containing CYP model substrates, and incubated together under the addition of NADPH, then the inhibitory IC50 of the compound on CYP2C19, 2D6 and 3A4 was calculated by measuring the amount of metabolites of the model substrate in the reaction solution. The specific experimental method is as follows:
Compounds to be tested were prepared as stock solutions at 10 mM concentration with DMSO and then diluted to 4 mM with acetonitrile solution. At the same time, the corresponding reference inhibitor solutions for CYP subtypes were prepared, for example, the reference inhibitor was Ketoconazole, then these two compounds were prepared separately ([…] of inhibitor DMSO stock solution+[…] of acetonitrile), and the samples prepared under the above conditions were at 400× concentration. Then, the above solution was 3-fold diluted with DMSO/acetonitrile mixture (v/v: 40/60) to prepare the final test solution, and seven concentration points were set for each test compound, and the initial test final concentration was 10 μM. […]
[…] of human liver microsome solution (0.2 mg/mL) was added to each well containing the test compound in the 96-well plate, and then 2 mL of the final test sample of test compounds prepared by serial dilution as described above was added thereto; for each well corresponding to the reference inhibitors, […] of human liver microsome solution (0.2 mg/mL) and 1 mL of the final test sample were added. […] The inhibition rate was determined by comparing the amount of model substrate metabolites at each test concentration without test substance addition, in the GraphPad Prism 5.0 software, the logarithm of the test concentration was used as the abscissa and the inhibition rate was used as the ordinate to perform a linear regression (Sigmoidal (non-linear) dose-response model) analysis to obtain the IC50 value of the test compound.

[2] = target: hERG channel (Homo sapiens (Human), UniProt Q12809); assay: Cardiac safety evaluation, hERG study (QPatch whole-cell recording); type: cell-based; settings: CHO cell line expressing hERG channel
hERG channel, sequence (Q12809 whole entry): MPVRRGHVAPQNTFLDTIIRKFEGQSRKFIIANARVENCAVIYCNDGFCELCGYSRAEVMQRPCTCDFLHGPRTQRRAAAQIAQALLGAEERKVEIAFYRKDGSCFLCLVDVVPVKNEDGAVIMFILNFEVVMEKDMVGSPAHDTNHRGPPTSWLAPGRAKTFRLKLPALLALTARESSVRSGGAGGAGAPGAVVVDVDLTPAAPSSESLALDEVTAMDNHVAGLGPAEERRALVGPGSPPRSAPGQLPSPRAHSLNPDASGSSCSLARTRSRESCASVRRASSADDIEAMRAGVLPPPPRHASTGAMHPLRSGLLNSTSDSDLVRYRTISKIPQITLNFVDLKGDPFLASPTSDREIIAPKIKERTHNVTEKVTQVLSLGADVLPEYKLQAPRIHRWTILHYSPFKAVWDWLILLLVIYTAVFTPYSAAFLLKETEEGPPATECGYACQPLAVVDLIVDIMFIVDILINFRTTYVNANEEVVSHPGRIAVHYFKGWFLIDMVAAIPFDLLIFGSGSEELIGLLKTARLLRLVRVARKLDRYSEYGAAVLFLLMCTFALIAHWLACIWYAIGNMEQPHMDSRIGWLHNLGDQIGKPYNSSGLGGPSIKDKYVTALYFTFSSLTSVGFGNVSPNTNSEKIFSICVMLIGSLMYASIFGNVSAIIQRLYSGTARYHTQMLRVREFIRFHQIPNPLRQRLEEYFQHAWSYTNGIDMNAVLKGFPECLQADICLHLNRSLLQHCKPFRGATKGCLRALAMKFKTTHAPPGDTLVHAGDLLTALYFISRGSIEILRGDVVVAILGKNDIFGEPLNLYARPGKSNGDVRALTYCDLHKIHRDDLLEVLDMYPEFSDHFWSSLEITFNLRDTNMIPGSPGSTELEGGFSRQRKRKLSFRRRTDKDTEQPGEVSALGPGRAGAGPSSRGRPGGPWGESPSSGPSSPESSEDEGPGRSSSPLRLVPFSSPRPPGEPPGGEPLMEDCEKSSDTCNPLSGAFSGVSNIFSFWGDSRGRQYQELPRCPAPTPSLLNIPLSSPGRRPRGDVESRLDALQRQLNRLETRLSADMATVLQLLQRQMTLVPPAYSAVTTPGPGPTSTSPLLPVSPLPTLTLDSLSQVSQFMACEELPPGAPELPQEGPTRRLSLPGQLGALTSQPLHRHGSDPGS
Protocol: In this experiment, a CHO cell line stably transfected with hERG cDNA and expressing p15 hERG channel was used. Cells were incubated at 37° C. in a humidified incubator containing 5% CO2 in medium (Ham's F12, 10% v/v FBS, 100 μg/mL hygromycin B, 100 μg/mL geneticin) (from Invitrogen). Cells were grown under the above conditions and reached approximately 80-90% of the confluency. Cells were treated with Detachin (Genlantis) for 3 to 5 minutes. The medium was titrated 15 to 20 times at 37° C., and then the cells were resuspended in CHO-S-SFM II medium (serum-free medium, Invitrogen) buffered with HEPES (25 mM). Cells used for QPatch studies must meet the following criteria: Most suspension cells should be single and isolated under microscopy; viability should be greater than 95%; cell density in the final suspension should be in the range of 3 to 8×10^6 cells/mL before application to the QPatch stir chamber. Cells meeting the above conditions can be used for recordings within 4 hours of harvest.
Test compounds were made into 10 mM DMSO stock solutions. Six doses (30, 10, 3, 1, 0.3 and 0.1 μM) were selected to obtain the fitted curves and IC50. The final DMSO concentration was 0.1% or less. The IC50 of the positive control cisapride was assessed at doses of 3, 1, 0.3, 0.1, 0.03 and 0.01 μM, respectively. Composition of […] for electrophysiological recordings: CaCl2 2 mM, MgCl2 1 mM, KCl 4 mM, NaCl 145 mM, Glucose 10 mM, HEPES 10 mM, pH 7.4 (NaOH), composition of external solution: CaCl2 […], MgCl2 1.75 mM, KCl 120 mM, HEPES 10 mM, EGTA 5 mM, Na-ATP 4 mM, pH 7.25 (KOH) (all reagents used were from sigma).
Whole-cell recordings were performed using automated QPatch (Sophion Biosciences, Denmark). Cells were recorded for 120 s to assess current stability. The above voltages were then applied to the cells every 15 s throughout the procedure. […]
The data were analyzed with Sophion Assay software (determination software V5.0), Microsoft Excel and Graphpad Prism 5.0 to obtain IC50 of compounds.

[3] = system: LOVO human colon cancer cell line; assay: Cell proliferation assay (Cell titer glo); type: cell-based; settings: LOVO cells, 72 hours
Protocol: In the present disclosure, cell assays were used to evaluate the biological activity of compounds. LOVO (Nanjing Cobioer), a human colon cancer cell line, was cultured in a Dulbecco's Modified Eagle's medium 96-well plate, supplemented with 10% fetal bovine serum and 1% P/S, and the culture environment was 37° C. and 5% CO2. Compound concentrations were ranged from 4.5 nM to 30 μM. The stock solution of the test compound was dissolved in DMSO and added to the medium at the indicated concentration, and incubated for 72 hours. Negative control cells were treated with vehicle only. In some experiments, known ATR inhibitors were added as positive controls. Cell viability was evaluated using the Cell titer glo kit (CTG, Promega) under the instructions of the product specification. The data were analyzed using Graphpad software, and IC50 values and compound fitting curves were obtained (Table 2).

CYP2D6, sequence (P10635 whole entry): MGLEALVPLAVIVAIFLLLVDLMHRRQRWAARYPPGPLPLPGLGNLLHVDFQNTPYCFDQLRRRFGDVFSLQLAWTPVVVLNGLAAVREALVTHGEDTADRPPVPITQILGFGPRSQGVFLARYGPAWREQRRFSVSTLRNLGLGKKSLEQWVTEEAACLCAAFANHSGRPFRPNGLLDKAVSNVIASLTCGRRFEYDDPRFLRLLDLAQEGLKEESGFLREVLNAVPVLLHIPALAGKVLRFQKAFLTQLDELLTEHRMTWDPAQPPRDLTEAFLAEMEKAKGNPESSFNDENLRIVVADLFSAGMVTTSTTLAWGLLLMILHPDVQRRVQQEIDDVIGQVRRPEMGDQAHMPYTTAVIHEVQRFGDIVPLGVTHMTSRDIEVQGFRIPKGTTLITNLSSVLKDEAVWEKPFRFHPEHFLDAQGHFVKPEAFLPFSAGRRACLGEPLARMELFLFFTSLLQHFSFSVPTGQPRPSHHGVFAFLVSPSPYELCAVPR

| IC50 [1] [µM] | IC50 [3] [µM] | Structure (SMILES) | IC50 [2] [µM] |
| --- | --- | --- | --- |
| > 10 | 0.0373 | C[C@@H]1COCCN1c1nc2c(cnn2-c2cc[nH]n2)c2c1CCN2S(C)(=O)=O [Compound 2, (R)-3-methyl-4-(1-(methylsulfonyl)-6-(1H-pyrazol-3-yl)-1,2,3,6-tetrahydropyrazolo[3,4-b]pyrrolo[2,3-d]pyridin-4-yl)morpholine trifluoroacetate] | > 30 |
| > 10 | 0.0296 | C[C@@H]1COCCN1c1nc2c(cnn2-c2cc[nH]n2)c2c1ccn2S(C)(=O)=O [Compound 1, (R)-3-methyl-4-(1-(methylsulfonyl)-6-(1H-pyrazol-3-yl)-1,6-dihydropyrazolo[3,4-b]pyrrolo[2,3-d]pyridin-4-yl)morpholine trifluoroacetate] | > 30 |

From patent publication US20240025899A1, “TRIHETEROCYCLIC DERIVATIVE, AND PHARMACEUTICAL COMPOSITION AND APPLICATION THEREOF” (SHANGHAI DE NOVO PHARMATECH CO., LTD., priority 2020, published 2024)
